One data set is filed under the species Homo sapiens. The experiment in a line: Selectivity ratio of IC50 for human full-length N-terminal SNAP-tagged alpha1D adrenoceptor to IC50 for human full-length N-terminal SNAP-tagged alpha1A adrenoceptor.
For the next data set, the system named is Rattus norvegicus. The experiment in a line: Increase in voided volume in po dosed Sprague-Dawley rat benign prostatic hyperplasia model administered 20 mins followed by distilled watering loading measured for 2 hrs. Format: functional. The conditions noted are these: read-out: MED.
Data set [1] deals with Voltage-gated inwardly rectifying potassium channel KCNH2 (Homo sapiens, UniProt Q12809). As to the kind of experiment: Inhibition of human ERG.
Chain of Voltage-gated inwardly rectifying potassium channel KCNH2 (Q12809 whole entry): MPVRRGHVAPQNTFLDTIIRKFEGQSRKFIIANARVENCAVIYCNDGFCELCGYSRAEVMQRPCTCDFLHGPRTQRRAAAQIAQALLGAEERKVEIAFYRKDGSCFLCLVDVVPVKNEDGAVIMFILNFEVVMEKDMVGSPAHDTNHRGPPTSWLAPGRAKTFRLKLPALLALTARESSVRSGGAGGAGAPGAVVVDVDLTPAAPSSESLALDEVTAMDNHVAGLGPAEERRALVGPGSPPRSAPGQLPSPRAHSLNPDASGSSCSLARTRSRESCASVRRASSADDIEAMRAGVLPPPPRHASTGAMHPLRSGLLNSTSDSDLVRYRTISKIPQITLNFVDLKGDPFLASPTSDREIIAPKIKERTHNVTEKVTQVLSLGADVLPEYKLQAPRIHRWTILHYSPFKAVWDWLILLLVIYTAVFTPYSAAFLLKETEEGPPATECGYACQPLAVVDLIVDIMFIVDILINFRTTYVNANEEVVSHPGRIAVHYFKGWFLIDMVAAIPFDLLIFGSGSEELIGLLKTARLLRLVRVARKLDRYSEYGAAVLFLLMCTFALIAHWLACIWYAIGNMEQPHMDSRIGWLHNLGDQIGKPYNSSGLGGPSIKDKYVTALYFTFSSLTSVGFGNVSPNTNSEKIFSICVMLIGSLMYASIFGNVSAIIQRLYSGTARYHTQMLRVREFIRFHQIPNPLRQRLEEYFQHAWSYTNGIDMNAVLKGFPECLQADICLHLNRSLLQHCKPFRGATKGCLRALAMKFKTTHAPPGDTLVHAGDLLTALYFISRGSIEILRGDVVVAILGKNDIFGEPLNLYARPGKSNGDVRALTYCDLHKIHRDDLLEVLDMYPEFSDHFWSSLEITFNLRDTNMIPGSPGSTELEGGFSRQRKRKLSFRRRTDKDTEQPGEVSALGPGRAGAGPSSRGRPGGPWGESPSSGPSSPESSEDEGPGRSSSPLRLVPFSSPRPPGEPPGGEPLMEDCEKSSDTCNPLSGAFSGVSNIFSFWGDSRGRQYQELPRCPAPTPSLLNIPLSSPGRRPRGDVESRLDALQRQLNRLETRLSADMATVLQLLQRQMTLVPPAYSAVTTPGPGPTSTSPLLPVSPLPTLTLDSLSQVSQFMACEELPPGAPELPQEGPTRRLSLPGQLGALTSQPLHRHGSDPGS
In the next data set the test system is Mus musculus. As to the kind of experiment: Acute toxicity in Kunming mouse assessed as mortality at 500 mg/kg, po administered as single dose measured over 7 days. Type of data set: organism-based. The settings on record: in vivo, 168 h.
Data set [2] can be described thus: Tmax in rat at 20 mg/kg, ig via oral gavage. Format: ADME, organism-based. The settings on record: in vivo.
The nature of data set [3]: Tmax in rat at 10 mg/kg, iv. Format: ADME, organism-based. The settings on record: in vivo.
Data set [4] in a line: Cmax in rat at 20 mg/kg, ig via oral gavage. The settings on record: in vivo. Format: ADME, organism-based.
Data set [5] in a line: AUC (0 to infinity) in rat at 20 mg/kg, ig via oral gavage. Format: ADME, organism-based. The conditions noted are these: in vivo.
Data set [6] is described as follows: Mean residence time in rat at 20 mg/kg, ig via oral gavage. The conditions noted are these: in vivo. Format: ADME, organism-based.
Data set [7] can be described thus: Half life in rat at 10 mg/kg, iv. The conditions noted are these: in vivo. Type of data set: ADME, organism-based.
The nature of data set [8]: Oral bioavailability in rat at 20 mg/kg, ig via gavage. Type of data set: ADME, organism-based. The settings on record: in vivo.
For data set [9], the target named is T1, Alpha-1A adrenergic receptor (Homo sapiens, UniProt P35348).
T1 sequence (P35348 whole entry): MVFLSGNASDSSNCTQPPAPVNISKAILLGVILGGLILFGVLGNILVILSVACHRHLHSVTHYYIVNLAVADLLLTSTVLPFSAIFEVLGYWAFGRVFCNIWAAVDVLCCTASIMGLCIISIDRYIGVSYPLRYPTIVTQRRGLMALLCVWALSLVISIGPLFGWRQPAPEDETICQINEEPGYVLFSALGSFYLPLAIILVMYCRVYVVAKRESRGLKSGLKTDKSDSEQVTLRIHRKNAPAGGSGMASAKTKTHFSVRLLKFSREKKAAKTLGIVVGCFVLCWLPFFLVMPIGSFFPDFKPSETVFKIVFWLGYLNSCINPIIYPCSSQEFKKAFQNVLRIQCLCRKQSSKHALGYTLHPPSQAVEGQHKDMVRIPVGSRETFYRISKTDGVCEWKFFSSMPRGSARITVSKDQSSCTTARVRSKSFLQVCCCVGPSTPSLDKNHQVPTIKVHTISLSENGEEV
Description: Antagonist activity at human full-length N-terminal SNAP-tagged alpha1A adrenoceptor expressed in HEK293 cells assessed as inhibition of agonist-induced calcium mobilization preincubated for 10 mins followed by agonist addition by fluo-4 AM dye-based assay

Data set [10] addresses T2, Alpha-1D adrenergic receptor (Homo sapiens, UniProt P25100).
T2 sequence (P25100 whole entry): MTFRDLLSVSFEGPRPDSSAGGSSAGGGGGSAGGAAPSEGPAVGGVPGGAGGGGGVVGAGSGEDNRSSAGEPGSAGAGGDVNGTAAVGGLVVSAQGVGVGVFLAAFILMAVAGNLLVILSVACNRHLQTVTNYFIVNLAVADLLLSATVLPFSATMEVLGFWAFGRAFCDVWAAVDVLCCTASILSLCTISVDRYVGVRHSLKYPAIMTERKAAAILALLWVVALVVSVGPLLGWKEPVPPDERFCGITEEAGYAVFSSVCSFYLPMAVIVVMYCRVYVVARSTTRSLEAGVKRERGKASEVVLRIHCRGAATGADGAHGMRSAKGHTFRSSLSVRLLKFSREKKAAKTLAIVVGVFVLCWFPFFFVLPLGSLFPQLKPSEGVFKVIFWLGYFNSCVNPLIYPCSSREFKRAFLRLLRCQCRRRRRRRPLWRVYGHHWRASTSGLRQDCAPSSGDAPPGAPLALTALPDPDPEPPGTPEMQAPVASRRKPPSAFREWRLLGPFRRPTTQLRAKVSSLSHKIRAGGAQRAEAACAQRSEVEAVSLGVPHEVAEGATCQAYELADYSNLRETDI
Description: Antagonist activity at human full-length N-terminal SNAP-tagged alpha1D adrenoceptor expressed in HEK293 cells assessed as inhibition of agonist-induced calcium mobilization preincubated for 10 mins followed by agonist addition by fluo-4 AM dye-based assay

One may read the IC50 as the midpoint of a concentration-inhibition curve. Read a high IC50 as weaker potency in that assay. A word on the Tmax: it is the time from dosing to the highest level. As a reminder, the Cmax is the maximum level reached in the sampled fluid or tissue. A word on the AUC(0-inf): it is total exposure, with the tail of the curve extrapolated. A higher AUC(0-inf) goes with more exposure. In general, MRT refers to the average time that molecules of a dose stay in the body. As a reminder, the half-life is the time needed for the level to fall by half in the phase considered. A lower half-life goes with rapid decline. A word on the bioavailability: it is dose-corrected exposure relative to a reference, in per cent.

As for `COc1ccc2[nH]c3c(c2c1)C[C@H]1c2cc4c(cc2CCN1C3)OCO4`, the Ratio IC50 in the data set filed under Homo sapiens is 19.6. For the same molecule, in the data set on Rattus norvegicus, the minimal effective dose was 3 mg/kg. Moreover, the concentration for half-maximal inhibition (IC50) in [1] worked out at 13200 nM; in [9] it was 12.8 nM; in data set [10] it was 251 nM. In addition, the Activity entry in the data set on Mus musculus is “Non-Toxic”. The Tmax in [2] came to 60 min; in data set [3] it was 15 min. This molecule displayed a Cmax in data set [4] of 684 ng/mL. In [5], this molecule registered an AUC(0-inf) of 2280 ng·h/mL. For the same molecule, the mean residence time (MRT) in data set [6] worked out at 151 min. The same molecule had a half-life in data set [7] of 58.8 min. Besides, the bioavailability in data set [8] was 60.9%.
